Measured values taken from ChEMBL document CHEMBL1201862, “PubChem BioAssay data set” (2004).
Blank lines part the entries; values can stand above or below the compound they belong to. Calls of active or inactive are those of the source.

Legend:
[1] = target: Protein Tat (Human immunodeficiency virus type 1 group M subtype B (isolate HXB2)(HIV-1), UniProt P04608); type: functional;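 note: tat binding to TAR RNA read out by fluorescence polarization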
[2] = target: Dual specificity protein phosphatase 6 (Rattus norvegicus, UniProt Q64346); assay: MKP-3 phosphatase inhibitors, primary screen, biochemical, rat enzyme, in vitro (AID 425)
Sequence of Dual specificity protein phosphatase 6 (Q64346 whole entry): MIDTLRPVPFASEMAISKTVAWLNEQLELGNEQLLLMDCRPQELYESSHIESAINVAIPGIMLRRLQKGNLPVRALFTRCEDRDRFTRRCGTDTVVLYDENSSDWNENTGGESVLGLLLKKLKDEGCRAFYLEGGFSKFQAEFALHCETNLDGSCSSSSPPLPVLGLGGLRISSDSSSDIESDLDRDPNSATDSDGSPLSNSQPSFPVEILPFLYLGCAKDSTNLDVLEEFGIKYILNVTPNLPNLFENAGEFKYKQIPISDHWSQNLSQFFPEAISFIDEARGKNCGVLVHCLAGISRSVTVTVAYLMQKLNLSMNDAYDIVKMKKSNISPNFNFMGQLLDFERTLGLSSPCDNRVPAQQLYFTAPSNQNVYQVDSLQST

[3] = inhibitors of Vif binding to APOBEC3G peptide, primary screen, biochemical, TR-FRET, GST-Vif 1-94, biotin-A3G peptide, dose response retest (AID 1117319); type: functional;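 note: TR-FRET signal of purified GST-Vif binding a biotinylated A3G peptide; inhibitors lower the FRET signal by blocking Vif and A3G binding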
[4] = THP-1 cell cytotoxicity, dose response, cytotoxicity control for Vif-APOBEC3G degradation inhibitor project, THP-1 cells (AID 1117359); type: functional; details: Human immunodeficiency virus 1, THP-1
[5] = Artemis endonuclease inhibitor potency, dose response, biochemical, fluorescence intensity (AID 720701); type: functional;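 note: Artemis endonuclease enzyme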
[6] = target: Estrogen receptor beta (Homo sapiens, UniProt Q92731); assay: ERβ–SRC-3 coactivator interaction inhibitors, confirmation, orthogonal assay, biochemical, ELISA, streptavidin-HRP readout (AID 1060)
Sequence of Estrogen receptor beta (Q92731 whole entry): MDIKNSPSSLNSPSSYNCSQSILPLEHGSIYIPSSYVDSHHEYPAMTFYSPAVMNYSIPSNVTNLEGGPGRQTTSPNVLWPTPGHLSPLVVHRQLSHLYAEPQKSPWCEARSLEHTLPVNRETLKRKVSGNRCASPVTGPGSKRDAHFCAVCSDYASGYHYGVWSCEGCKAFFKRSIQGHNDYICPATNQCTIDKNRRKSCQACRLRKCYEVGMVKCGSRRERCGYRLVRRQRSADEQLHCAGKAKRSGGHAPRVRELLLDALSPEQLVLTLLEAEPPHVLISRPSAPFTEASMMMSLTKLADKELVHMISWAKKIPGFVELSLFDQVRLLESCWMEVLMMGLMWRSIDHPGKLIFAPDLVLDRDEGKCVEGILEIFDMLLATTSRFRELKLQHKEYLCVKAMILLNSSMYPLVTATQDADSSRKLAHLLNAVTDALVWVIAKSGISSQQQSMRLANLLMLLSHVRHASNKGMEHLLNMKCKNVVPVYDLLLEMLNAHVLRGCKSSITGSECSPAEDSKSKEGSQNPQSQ

[7] = cytotoxicity in KRAS-transformed pancreatic duct cells, primary screen, cell-based, fluorescence, HTS (AID 431); type: functional; details: Homo sapiens;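 note: cell line used: HPDE-C7K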
[8] = cytotoxicity in HPDE-C7 cells, cell-based, fluorescence, HTS (AID 430); type: functional; details: Homo sapiens
[9] = target: 5-hydroxytryptamine receptor 1A (Homo sapiens, UniProt P08908); type: functional
Sequence of 5-hydroxytryptamine receptor 1A (P08908 whole entry): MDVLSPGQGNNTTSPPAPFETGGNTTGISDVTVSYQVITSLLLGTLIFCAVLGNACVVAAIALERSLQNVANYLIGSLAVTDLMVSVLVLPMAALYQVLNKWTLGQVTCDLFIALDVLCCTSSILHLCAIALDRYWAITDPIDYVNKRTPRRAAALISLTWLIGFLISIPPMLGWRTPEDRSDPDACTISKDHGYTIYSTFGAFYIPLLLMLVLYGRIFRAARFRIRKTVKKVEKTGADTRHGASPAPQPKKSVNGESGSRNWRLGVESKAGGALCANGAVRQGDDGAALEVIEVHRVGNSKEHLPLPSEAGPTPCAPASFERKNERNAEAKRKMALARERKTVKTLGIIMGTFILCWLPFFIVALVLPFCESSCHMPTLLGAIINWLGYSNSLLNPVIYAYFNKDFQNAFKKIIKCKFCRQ

[10] = Fluorescence Cell-Based Dose Response to Identify Inhibitors of Thrombin Receptor-Activating Peptide SFLLRN-Mediated P-Selectin Induction on Platelets. [Related pubchem assays: 1663 (Primary HTS), 1889 (retest at dose ), 1891 (counterscreen), 1678 (Project Summary)]; type: functional
[11] = target: Luciferin 4-monooxygenase (Photinus pyralis, UniProt P08659); assay: firefly luciferase enzyme inhibitors, dose response, biochemical, luminescence (AID 1891)
Sequence of Luciferin 4-monooxygenase (P08659 whole entry): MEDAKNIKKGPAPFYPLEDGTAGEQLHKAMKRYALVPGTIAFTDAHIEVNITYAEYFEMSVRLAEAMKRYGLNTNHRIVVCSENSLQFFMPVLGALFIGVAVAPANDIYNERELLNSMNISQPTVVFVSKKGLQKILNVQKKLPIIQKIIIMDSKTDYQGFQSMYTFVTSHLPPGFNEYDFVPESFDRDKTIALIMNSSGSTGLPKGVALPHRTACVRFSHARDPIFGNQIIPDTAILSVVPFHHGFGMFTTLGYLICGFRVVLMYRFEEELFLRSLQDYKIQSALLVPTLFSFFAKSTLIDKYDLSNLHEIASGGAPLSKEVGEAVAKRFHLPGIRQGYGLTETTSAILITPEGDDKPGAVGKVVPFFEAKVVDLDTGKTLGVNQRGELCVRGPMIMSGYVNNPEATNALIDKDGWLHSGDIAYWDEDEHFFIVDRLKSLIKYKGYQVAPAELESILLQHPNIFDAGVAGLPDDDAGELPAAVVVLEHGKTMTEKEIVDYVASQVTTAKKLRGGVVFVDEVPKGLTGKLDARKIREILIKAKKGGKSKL

[12] = Luminescence Cell-Based Dose Confirmation HTS to Identify Inhibitors of Platelet Dense Granule Release. [Related pubchem assays: 1663 (Primary HTS), 1678 (Summary of Project)]; type: functional
[13] = target: Aryl hydrocarbon receptor (Homo sapiens, UniProt P35869); assay: Luminescence-based cell-based high throughput dose response assay for activators of the Aryl Hydrocarbon Receptor (AHR). [Related pubchem assays: 2796 (Primary screen (AHR activators in singlicate)), 2845 (Confirmation screen (AHR activators in triplicate)), 434939 (Counterscreen (PXR activators in triplicate)), 2804 (Summary (AHR activators))]; type: ADME
Sequence of Aryl hydrocarbon receptor (P35869 whole entry): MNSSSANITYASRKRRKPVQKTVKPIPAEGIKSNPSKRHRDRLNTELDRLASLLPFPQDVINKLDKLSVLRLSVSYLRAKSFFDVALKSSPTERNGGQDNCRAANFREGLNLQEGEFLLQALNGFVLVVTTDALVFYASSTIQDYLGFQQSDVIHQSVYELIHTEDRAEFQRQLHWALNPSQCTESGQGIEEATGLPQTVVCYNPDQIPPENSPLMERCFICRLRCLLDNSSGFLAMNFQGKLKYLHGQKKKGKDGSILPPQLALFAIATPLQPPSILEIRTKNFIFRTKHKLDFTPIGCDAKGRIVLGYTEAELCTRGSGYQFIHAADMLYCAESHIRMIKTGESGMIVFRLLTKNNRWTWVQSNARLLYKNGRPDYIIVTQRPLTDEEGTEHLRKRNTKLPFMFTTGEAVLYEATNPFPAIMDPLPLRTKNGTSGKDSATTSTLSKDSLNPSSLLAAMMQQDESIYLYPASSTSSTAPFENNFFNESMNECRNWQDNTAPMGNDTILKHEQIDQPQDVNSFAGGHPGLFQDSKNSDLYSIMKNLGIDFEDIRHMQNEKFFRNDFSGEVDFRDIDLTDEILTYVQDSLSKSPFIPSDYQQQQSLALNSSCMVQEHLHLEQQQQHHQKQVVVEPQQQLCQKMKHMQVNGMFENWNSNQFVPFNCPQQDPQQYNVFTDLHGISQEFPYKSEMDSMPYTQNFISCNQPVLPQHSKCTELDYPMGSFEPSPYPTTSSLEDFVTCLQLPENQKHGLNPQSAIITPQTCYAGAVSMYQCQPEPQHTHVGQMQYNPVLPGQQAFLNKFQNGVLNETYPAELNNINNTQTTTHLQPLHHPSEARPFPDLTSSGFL

Sequence of Protein Tat (P04608 whole entry): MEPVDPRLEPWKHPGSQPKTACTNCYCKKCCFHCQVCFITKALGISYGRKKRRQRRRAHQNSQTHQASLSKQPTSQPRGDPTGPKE

Compound: CSc1nc(N(CCO)CCO)c2sc3nc(-c4ccco4)c4c(c3c2n1)CCC4
- IC50 [1]: 57.3 µM (inconclusive)
- IC50 [2]: > 10 µM (not active)
- IC50 [3]: > 34.6 µM (active)
- CC50 [4]: > 40 µM (active)
- IC50 [5]: > 20 µM (inactive)
- IC50 [6]: > 50 µM (not active)
- EC50 [7]: 5.95 µM (active)
- EC50 [8]: 12.6 µM (active)

- EC50 [9]: > 50 µM (not active)
Compound: CCCCN(C)CCCNC(=O)Cn1c(=O)sc2ccccc21

Compound: COc1cc2c(cc1OC)-c1cc(N3CCc4ccccc43)nc(=O)n1CC2
- EC50 [10]: < 0.3 µM (active)
- EC50 [11]: > 112 µM (not active)
- EC50 [12]: 6.83 µM (active)

- EC50 [13]: 0.373 µM (active)
Compound: NNc1nc(O)c2c3c(sc2n1)-c1ccccc1CC3
